Measured values taken from patent US9376425B2, “Heterocyclic compounds as MDM2 inhibitors for the treatment of cancer” (AMGEN INC., priority 2011, dated 2016).

Target: T1, human MDM2 (GST-hMDM2 1-188), interaction with biotinylated-p53 (1-83) (Homo sapiens, UniProt Q00987)
T1 construct: Amino acid residues 1-188 of human MDM2 were expressed; made in house; host or cells: Escherichia coli
Assay: improved HTRF assay (HTRF2 assay), inhibition of HDM2-p53 interaction
Type: binding
Conditions: 0.2 nM GST-hMDM2, 0.5 nM biotinylated-p53, 100 mM KF
Summary of the method: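 GST-hMDM2 preincubated 20 min at RT with serially diluted compound, then biotinylated p53 (1-83, E. coli) added for 60 min. Detection with SA-XLent, anti-GST cryptate and KF, equilibrated >4 h; final DMSO 2%. TR-FRET read; % inhibition calculated relative to nutlin-3.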

T1 sequence (Q00987 1-188): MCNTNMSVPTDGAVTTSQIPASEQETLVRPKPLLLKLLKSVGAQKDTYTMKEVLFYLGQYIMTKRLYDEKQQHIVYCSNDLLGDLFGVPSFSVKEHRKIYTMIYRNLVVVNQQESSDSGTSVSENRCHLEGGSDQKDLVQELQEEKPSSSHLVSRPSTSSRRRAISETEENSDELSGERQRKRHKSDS

Row | Structure (SMILES) | IC50 [nM]
1 | CC[C@@H](CN(c1ccccc1F)S(=O)(=O)C1CC1)N1C(=O)[C@H](CC(=O)NS(C)(=O)=O)O[C@H](c2cccc(Cl)c2)[C@H]1c1ccc(Cl)cc1 (single isomer, unassigned) [Example 239, 2-((2S,5R,6R)-6-(3-chlorophenyl)-5-(4-chlorophenyl)-4-((S)-1-(N-(2-fluorophenyl)cyclopropanesulfonamido)butan-2-yl)-3-oxomorpholin-2-yl)-N-(methylsulfonyl)acetamide or 2-((2R,5R,6R)-6-(3-chlorophenyl)-5-(4-chlorophenyl)-4-((S)-1-(N-(2-fluorophenyl)cyclopropanesulfonamido)butan-2-yl)-3-oxomorpholin-2-yl)-N-(methylsulfonyl)acetamide] | < 1
2 | CC[C@@H](CN(c1ccccc1F)S(=O)(=O)C1CC1)N1C(=O)[C@@H](CC(=O)NS(C)(=O)=O)O[C@H](c2cccc(Cl)c2)[C@H]1c1ccc(Cl)cc1 (single isomer, unassigned) [Example 240, 2-((2R,5R,6R)-6-(3-chlorophenyl)-5-(4-chlorophenyl)-4-((S)-1-(N-(2-fluorophenyl)cyclopropanesulfonamido)butan-2-yl)-3-oxomorpholin-2-yl)-N-(methylsulfonyl)acetamide or 2-((2S,5R,6R)-6-(3-chlorophenyl)-5-(4-chlorophenyl)-4-((S)-1-(N-(2-fluorophenyl)cyclopropanesulfonamido)butan-2-yl)-3-oxomorpholin-2-yl)-N-(methylsulfonyl)acetamide] | 11
3 | CC[C@@H](CN(c1ccccc1F)S(=O)(=O)C1CC1)N1C(=O)[C@H](CC(N)=O)O[C@H](c2cccc(Cl)c2)[C@H]1c1ccc(Cl)cc1 (single isomer, unassigned) [Example 241, 2-((2S,5R,6R)-6-(3-chlorophenyl)-5-(4-chlorophenyl)-4-((S)-1-(N-(2-fluorophenyl)cyclopropanesulfonamido)butan-2-yl)-3-oxomorpholin-2-yl)acetamide or 2-((2R,5R,6R)-6-(3-chlorophenyl)-5-(4-chlorophenyl)-4-((S)-1-(N-(2-fluorophenyl)cyclopropanesulfonamido)butan-2-yl)-3-oxomorpholin-2-yl)acetamide] | 1
4 | CC[C@@H](CN(c1ccccc1F)S(=O)(=O)C1CC1)N1C(=O)[C@@H](CC(N)=O)O[C@H](c2cccc(Cl)c2)[C@H]1c1ccc(Cl)cc1 (single isomer, unassigned) [Example 242, 2-((2R,5R,6R)-6-(3-chlorophenyl)-5-(4-chlorophenyl)-4-((S)-1-(N-(2-fluorophenyl)cyclopropanesulfonamido)butan-2-yl)-3-oxomorpholin-2-yl)acetamide or 2-((2S,5R,6R)-6-(3-chlorophenyl)-5-(4-chlorophenyl)-4-((S)-1-(N-(2-fluorophenyl)cyclopropanesulfonamido)butan-2-yl)-3-oxomorpholin-2-yl)acetamide] | 2
5 | CC[C@@H](CN(C)S(=O)(=O)C1CC1)N1C(=O)[C@@H](Cc2nnn[nH]2)O[C@H](c2cccc(Cl)c2)[C@H]1c1ccc(Cl)cc1 (single isomer, unassigned) [Example 243, N-((S)-2-((2R,5R,6R)-2-((1H-tetrazol-5-yl)methyl)-6-(3-chlorophenyl)-5-(4-chlorophenyl)-3-oxomorpholino)butyl)-N-methylcyclopropanesulfonamide or N-((S)-2-((2S,5R,6R)-2-((1H-tetrazol-5-yl)methyl)-6-(3-chlorophenyl)-5-(4-chlorophenyl)-3-oxomorpholino)butyl)-N-methylcyclopropanesulfonamide] | 1
6 | CC[C@@H](CN(C)S(=O)(=O)C1CC1)N1C(=O)[C@H](Cc2nnn[nH]2)O[C@H](c2cccc(Cl)c2)[C@H]1c1ccc(Cl)cc1 (single isomer, unassigned) [Example 244, N-((S)-2-((2S,5R,6R)-2-((1H-tetrazol-5-yl)methyl)-6-(3-chlorophenyl)-5-(4-chlorophenyl)-3-oxomorpholino)butyl)-N-methylcyclopropanesulfonamide or N-((S)-2-((2R,5R,6R)-2-((1H-tetrazol-5-yl)methyl)-6-(3-chlorophenyl)-5-(4-chlorophenyl)-3-oxomorpholino)butyl)-N-methylcyclopropanesulfonamide] | 1
7 | CC[C@@H](CS(=O)(=O)C(C)(C)C)N1C(=O)[C@@H](CC(=O)CO)O[C@H](c2cccc(Cl)c2)[C@H]1c1ccc(Cl)cc1 (single isomer, unassigned) [Example 245, (2R,5R,6R)-4-((S)-1-(tert-butylsulfonyl)butan-2-yl)-6-(3-chlorophenyl)-5-(4-chlorophenyl)-2-(3-hydroxy-2-oxopropyl)morpholin-3-one or (2S,5R,6R)-4-((S)-1-(tert-butylsulfonyl)butan-2-yl)-6-(3-chlorophenyl)-5-(4-chlorophenyl)-2-(3-hydroxy-2-oxopropyl)morpholin-3-one] | 9
8 | CC[C@@H](CS(=O)(=O)CCN(C)C)N1C(=O)[C@@H](CC(=O)O)O[C@H](c2cccc(Cl)c2)[C@H]1c1ccc(Cl)cc1 (single isomer, unassigned) [Example 247, 2-((2R,5R,6R)-6-(3-chlorophenyl)-5-(4-chlorophenyl)-4-((S)-1-((2-(dimethylamino)ethyl)sulfonyl)butan-2-yl)-3-oxomorpholin-2-yl)acetic acid or 2-((2S,5R,6R)-6-(3-chlorophenyl)-5-(4-chlorophenyl)-4-((S)-1-((2-(dimethylamino)ethyl)sulfonyl)butan-2-yl)-3-oxomorpholin-2-yl)acetic acid] | 3
9 | CC[C@@H](CS(=O)(=O)CCN(C)C)N1C(=O)[C@H](CC(=O)O)O[C@H](c2cccc(Cl)c2)[C@H]1c1ccc(Cl)cc1 (single isomer, unassigned) [Example 248, 2-((2S,5R,6R)-6-(3-chlorophenyl)-5-(4-chlorophenyl)-4-((S)-1-((2-(dimethylamino)ethyl)sulfonyl)butan-2-yl)-3-oxomorpholin-2-yl)acetic acid or 2-((2R,5R,6R)-6-(3-chlorophenyl)-5-(4-chlorophenyl)-4-((S)-1-((2-(dimethylamino)ethyl)sulfonyl)butan-2-yl)-3-oxomorpholin-2-yl)acetic acid] | 8
10 | O=C(O)C[C@H]1OC(c2cccc(Cl)c2)C(c2ccc(Cl)cc2)N([C@H](CN(c2c(F)cccc2F)S(=O)(=O)C2CC2)C2CC2)C1=O (single isomer, unassigned) [Example 250] | < 1
11 | O=C(O)C[C@H]1O[C@H](c2cccc(Cl)c2)[C@@H](c2ccc(Cl)cc2)N([C@H](CN(c2c(F)cccc2F)S(=O)(=O)C2CC2)C2CC2)C1=O (single isomer, unassigned) [Example 251, 2-((2R,5R,6R)-6-(3-chlorophenyl)-5-(4-chlorophenyl)-4-((S)-1-cyclopropyl-2-(N-(2,6-difluorophenyl)cyclopropanesulfonamido)ethyl)-3-oxomorpholin-2-yl)acetic acid or 2-((2S,5R,6R)-6-(3-chlorophenyl)-5-(4-chlorophenyl)-4-((S)-1-cyclopropyl-2-(N-(2,6-difluorophenyl)cyclopropanesulfonamido)ethyl)-3-oxomorpholin-2-yl)acetic acid] | < 1
12 | CC[C@@H](CN(c1ccccc1F)S(=O)(=O)C1CC1)N1C(=O)[C@@H]([C@@H](C)C(=O)O)O[C@H](c2cccc(Cl)c2)[C@H]1c1ccc(Cl)cc1 (single isomer, unassigned) [Example 252] | 1
13 | CC[C@@H](CN(c1ccccc1F)S(=O)(=O)C1CC1)N1C(=O)[C@@H]([C@@H](C)C(=O)O)O[C@H](c2cccc(Cl)c2)[C@H]1c1ccc(Cl)cc1 (single isomer, unassigned) [Example 253] | 18
14 | CC[C@@H](CN(c1ccccc1F)S(=O)(=O)C1CC1)N1C(=O)[C@@H]([C@@H](C)C(=O)O)O[C@H](c2cccc(Cl)c2)[C@H]1c1ccc(Cl)cc1 (single isomer, unassigned) [Example 254] | 1
15 | CC[C@@H](CN(c1ccccc1F)S(=O)(=O)C1CC1)N1C(=O)[C@@H]([C@@H](C)C(=O)O)O[C@H](c2cccc(Cl)c2)[C@H]1c1ccc(Cl)cc1 (single isomer, unassigned) [Example 255] | 4
16 | NC(=O)C[C@@H]1O[C@H](c2cccc(Cl)c2)[C@@H](c2ccc(Cl)cc2)N([C@H](CN(c2ccccc2F)S(=O)(=O)C2CC2)C2CC2)C1=O (single isomer, unassigned) [Example 256, 2-((2S,5R,6R)-6-(3-chlorophenyl)-5-(4-chlorophenyl)-4-((S)-1-cyclopropyl-2-(N-(2-fluorophenyl)cyclopropanesulfonamido)ethyl)-3-oxomorpholin-2-yl)acetamide or 2-((2R,5R,6R)-6-(3-chlorophenyl)-5-(4-chlorophenyl)-4-((S)-1-cyclopropyl-2-(N-(2-fluorophenyl)cyclopropanesulfonamido)ethyl)-3-oxomorpholin-2-yl)acetamide] | < 1
17 | NC(=O)C[C@H]1O[C@H](c2cccc(Cl)c2)[C@@H](c2ccc(Cl)cc2)N([C@H](CN(c2ccccc2F)S(=O)(=O)C2CC2)C2CC2)C1=O (single isomer, unassigned) [Example 257, 2-((2R,5R,6R)-6-(3-chlorophenyl)-5-(4-chlorophenyl)-4-((S)-1-cyclopropyl-2-(N-(2-fluorophenyl)cyclopropanesulfonamido)ethyl)-3-oxomorpholin-2-yl)acetamide or 2-((2S,5R,6R)-6-(3-chlorophenyl)-5-(4-chlorophenyl)-4-((S)-1-cyclopropyl-2-(N-(2-fluorophenyl)cyclopropanesulfonamido)ethyl)-3-oxomorpholin-2-yl)acetamide] | < 1
